# From patent publication US20120122727A1, “IN VITRO METHOD FOR PREDICTING WHETHER A COMPOUND IS GENOTOXIC IN VIVO” (priority 2009, published 2012)
# System: primary mouse hepatocytes
# Test: Gene expression (Affymetrix Mouse Genome 430 2.0) in primary mouse hepatocytes, true vs false GTX, 24 h and 48 h
# Details: log2, corrected for vehicle control
smiles,measurement,setting,value
"O=c1c(O)c(-c2ccc(O)c(O)c2)oc2cc(O)cc(O)c12 [Q, Quercetin]",Gene expression data AF000969 (Cadps2),24 h average,−0.5753
same,Gene expression data AF022072 (Grb10),24 h average,0.3385
same,Gene expression data AF065917 (Lif),24 h average,−0.1024
same,Gene expression data AF204959 (Cyp3a25 /// LOC622249),24 h average,−1.232
same,Gene expression data AF297615 (Ggta1),24 h average,0.8047
same,Gene expression data AI594683 (Dmn),24 h average,−0.2712
same,Gene expression data AI596632 (Ptprg /// LOC632664),24 h average,−0.456
same,Gene expression data AI987929 (Ndrg1),24 h average,1.663
same,Gene expression data AK004419 (Fbxl17),24 h average,−0.01537
same,Gene expression data AK005731 (1700007K13Rik),24 h average,0.6919
same,Gene expression data AK007766 (1810044A24Rik),24 h average,−0.04463
same,Gene expression data AK007854 (1810053B23Rik),24 h average,−0.9336
same,Gene expression data AK009736 (Gpr137b /// LOC664862 /// LOC673335),24 h average,1.171
same,Gene expression data AK010447 (Smyd3),24 h average,0.0701
same,Gene expression data AK014608 (4632434l11Rik),24 h average,0.03273
same,Gene expression data AK019979 (2610528E23Rik),24 h average,0.2502
same,Gene expression data AV095209 (Mthfd1l),24 h average,0.8331
same,Gene expression data AV141095 (1110033M05Rik),24 h average,0.2855
same,Gene expression data AV173571 (1700106N22Rik),24 h average,−0.2484
same,Gene expression data AV219418 (Ldhb),24 h average,−0.1808
same,Gene expression data AV223474 (Zdhhc14),24 h average,−0.2496
same,Gene expression data AV298304 (Homez),24 h average,0.2496
same,Gene expression data AV327248 (Zfp365 /// LOC674611),24 h average,0.3116
same,Gene expression data AV377066 (9130221J18Rik),24 h average,−0.4922
same,Gene expression data AW240761 (Tbc1d5),24 h average,−0.157
same,Gene expression data AW543460 (Pard3),24 h average,0.2437
same,Gene expression data AW543723,24 h average,0.4193
same,Gene expression data AW986246 (Maoa),24 h average,1.388
same,Gene expression data BB027848 (4732466D17Rik),24 h average,−1.304
same,Gene expression data BB043558 (9230114K14Rik),24 h average,0.3431
same,Gene expression data BB275142 (AW456874),24 h average,−0.5004
same,Gene expression data BB308836 (Ppm1l),24 h average,0.1666
same,Gene expression data BB318221 (Zdhhc14),24 h average,−0.1479
same,Gene expression data BB463610 (4632434l11Rik),24 h average,−0.1026
same,Gene expression data BB526605 (Mipol1),24 h average,0.09617
same,Gene expression data BB770528 (Rai2),24 h average,−0.3109
same,Gene expression data BB821363 (Scfd2),24 h average,−0.2338
same,Gene expression data BC004827 (Psat1),24 h average,0.9258
same,Gene expression data BC008626 (Icam1),24 h average,−0.3725
same,Gene expression data BC010462 (BC010462),24 h average,−0.5852
same,Gene expression data BC012247 (Dcxr),24 h average,−0.2845
same,Gene expression data BC012260 (Psmf1),24 h average,−0.1689
same,Gene expression data BC015270 (Hist2h3c2),24 h average,−0.3924
same,Gene expression data BC016073 (Cdkal1),24 h average,0.1993
same,Gene expression data BC016265 (Ube2e2),24 h average,0.1622
same,Gene expression data BC019882 (Acaa1b),24 h average,0.7124
same,Gene expression data BC025501 (Aaas),24 h average,0.4589
same,Gene expression data BC025837 (Sbk1),24 h average,−0.3383
same,Gene expression data BC025915 (Cova1),24 h average,0.3176
same,Gene expression data BC026422 (Tgm1),24 h average,0.28
same,Gene expression data BF719766 (Thyn1),24 h average,0.1596
same,Gene expression data BG065754 (Ccng1),24 h average,0.4829
same,Gene expression data BG066903 (Kif16b),24 h average,0.2506
same,Gene expression data BG069873 (Gnb1l),24 h average,0.007867
same,Gene expression data BG070887 (Gtdc1),24 h average,−0.2209
same,Gene expression data BG076151 (Ppm1d),24 h average,−0.1367
same,Gene expression data BG261907 (Large),24 h average,0.3964
same,Gene expression data BI651416 (Cdc42bpg),24 h average,0.2653
same,Gene expression data BI660702 (Ell3),24 h average,−0.05897
same,Gene expression data BM198879 (Ercc5),24 h average,0.1402
same,Gene expression data BM230508 (A030007D23Rik),24 h average,0.3449
same,Gene expression data NM_007987 (Fas),24 h average,0.1744
same,Gene expression data NM_008522 (Ltf),24 h average,−0.09593
same,Gene expression data NM_008576 (Abcc1),24 h average,1.2925
same,Gene expression data NM_011176 (St14),24 h average,0.5914
same,Gene expression data NM_011316 (Saa4),24 h average,−0.1314
same,Gene expression data NM_012006 (Acot1),24 h average,1.0762
same,Gene expression data NM_013866 (Zfp385),24 h average,0.06543
same,Gene expression data NM_018770 (Igsf4a),24 h average,0.4689
same,Gene expression data NM_021451 (Pmaip1),24 h average,−0.611
same,Gene expression data NM_025770 (Atg10),24 h average,0.2663
same,Gene expression data NM_028803 (Gbe1),24 h average,−0.2509
same,Gene expression data NM_030697 (Ankrd47),24 h average,1.3142
same,Gene expression data NM_053168 (Trim11),24 h average,−0.02257
same,Gene expression data NM_134188 (Acot2),24 h average,0.1275
same,Gene expression data Y15910 (Diap2),24 h average,−0.31
same,Gene expression AA561726 average,48 h,0.3473
same,Gene expression AF000969 average,48 h,0.6762
same,Gene expression AF022072 average,48 h,0.7799
same,Gene expression AF033112 average,48 h,0.02593
same,Gene expression AF055573 average,48 h,0.0039
same,Gene expression AF069954 average,48 h,−0.168
same,Gene expression AF297615 average,48 h,−0.02943
same,Gene expression AF335325 average,48 h,−0.3547
same,Gene expression AI594683 average,48 h,−0.1952
same,Gene expression AI747296 average,48 h,−0.1572
same,Gene expression AK005731 average,48 h,−0.8953
same,Gene expression AK007854 average,48 h,1.0645
same,Gene expression AK010447 average,48 h,−0.1277
same,Gene expression AK010738 average,48 h,0.03457
same,Gene expression AK014608 average,48 h,−0.3181
same,Gene expression AK017734 average,48 h,−0.2231
same,Gene expression AK018383 average,48 h,−0.06343
same,Gene expression AK019979 average,48 h,−0.6456
same,Gene expression AV095209 average,48 h,0.0573
same,Gene expression AV141095 average,48 h,−0.03573
same,Gene expression AV173869 average,48 h,−0.3593
same,Gene expression AV216768 average,48 h,0.4269
same,Gene expression AV219418 average,48 h,0.7223
same,Gene expression AV221299 average,48 h,0.3941
same,Gene expression AV246296 average,48 h,−0.449
same,Gene expression AV251625 average,48 h,−0.2405
same,Gene expression AV254764 average,48 h,−0.09113
same,Gene expression AV327248 average,48 h,−0.1842
same,Gene expression BB009155 average,48 h,−0.6448
same,Gene expression BB027848 average,48 h,−0.5634
same,Gene expression BB043558 average,48 h,0.03817
same,Gene expression BB046347 average,48 h,0.3747
same,Gene expression BB140436 average,48 h,0.455
same,Gene expression BB204486 average,48 h,0.3211
same,Gene expression BB223872 average,48 h,−0.2409
same,Gene expression BB246912 average,48 h,0.03943
same,Gene expression BB275142 average,48 h,−0.5307
same,Gene expression BB458460 average,48 h,−0.2505
same,Gene expression BB463610 average,48 h,−0.254
same,Gene expression BB730977 average,48 h,0.127
same,Gene expression BB743970 average,48 h,−0.1543
same,Gene expression BB770528 average,48 h,−0.5238
same,Gene expression BB781615 average,48 h,−0.3025
same,Gene expression BC003284 average,48 h,−0.3991
same,Gene expression BC004827 average,48 h,0.3832
same,Gene expression BC005552 average,48 h,0.365
same,Gene expression BC006713 average,48 h,0.1419
same,Gene expression BC010318 average,48 h,0.2274
same,Gene expression BC012247 average,48 h,0.1853
same,Gene expression BC012955 average,48 h,0.25
same,Gene expression BC013893 average,48 h,−0.5246
same,Gene expression BC017615 average,48 h,−0.2786
same,Gene expression BC019379 average,48 h,−0.03313
same,Gene expression BC019882 average,48 h,−0.02177
same,Gene expression BC021352 average,48 h,−1.143
same,Gene expression BC022148 average,48 h,0.2323
same,Gene expression BC025169 average,48 h,0.176
same,Gene expression BC026131 average,48 h,0.3886
same,Gene expression BC027026 average,48 h,0.3636
same,Gene expression BC027121 average,48 h,0.003767
same,Gene expression BC027185 average,48 h,−0.4317
same,Gene expression BE956581 average,48 h,0.1063
same,Gene expression BF719766 average,48 h,0.1683
same,Gene expression BG065754 average,48 h,−0.2692
same,Gene expression BG066491 average,48 h,−0.6278
same,Gene expression BG076151 average,48 h,−0.7006
same,Gene expression BG076333 average,48 h,0.2569
same,Gene expression BG797099 average,48 h,−0.3185
same,Gene expression BG967046 average,48 h,−0.2263
same,Gene expression BI651416 average,48 h,−0.4982
same,Gene expression BI966443 average,48 h,0.1621
same,Gene expression BM198879 average,48 h,−0.1382
same,Gene expression BM200015 average,48 h,−0.2469
same,Gene expression BM230508 average,48 h,−0.6707
same,Gene expression BM936480 average,48 h,0.1682
same,Gene expression BQ174991 average,48 h,0.5432
same,Gene expression L21027 average,48 h,0.4391
same,Gene expression NM_007556 average,48 h,0.4673
same,Gene expression NM_007980 average,48 h,1.051
same,Gene expression NM_007987 average,48 h,−0.07343
same,Gene expression NM_008522 average,48 h,−0.03917
same,Gene expression NM_008935 average,48 h,0.5881
same,Gene expression NM_009897 average,48 h,0.2468
same,Gene expression NM_011075 average,48 h,−0.8714
same,Gene expression NM_011176 average,48 h,−0.3579
same,Gene expression NM_011316 average,48 h,−0.2485
same,Gene expression NM_012006 average,48 h,0.7373
same,Gene expression NM_013642 average,48 h,0.7153
same,Gene expression NM_013738 average,48 h,−0.4434
same,Gene expression NM_013929 average,48 h,0.09257
same,Gene expression NM_018881 average,48 h,0.2667
same,Gene expression NM_019738 average,48 h,−0.7691
same,Gene expression NM_030697 average,48 h,0.08597
same,Gene expression NM_053122 average,48 h,−0.1158
same,Gene expression NM_134147 average,48 h,−0.2048
same,Gene expression NM_134188 average,48 h,0.5773
same,Gene expression X62701 average,48 h,0.8426
